From patent publication US11976057B2, “MrgX2 antagonists” (GlaxoSmithKline Intellectual Property Development Limited, priority 2020, dated 2024)

Biological target: T1, human MRGPRX2 (Homo sapiens, UniProt Q96LB1)
T1 sequence (Q96LB1 1-330): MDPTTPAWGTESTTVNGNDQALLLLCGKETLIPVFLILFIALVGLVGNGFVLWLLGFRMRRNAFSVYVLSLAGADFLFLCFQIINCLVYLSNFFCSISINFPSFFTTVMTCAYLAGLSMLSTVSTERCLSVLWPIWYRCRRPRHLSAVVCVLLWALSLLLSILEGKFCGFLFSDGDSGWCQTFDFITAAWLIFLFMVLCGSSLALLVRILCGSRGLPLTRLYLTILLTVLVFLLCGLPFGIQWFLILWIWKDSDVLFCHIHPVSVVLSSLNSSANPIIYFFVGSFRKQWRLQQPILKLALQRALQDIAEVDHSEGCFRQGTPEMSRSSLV
Test: Ca2+ mobilization assay (FLIPR TETRA): inhibition of Cortistatin-14 mediated MRGPRX2 activation

Row | Compound | IC50
1 | Cc1nc(-c2ccc(Oc3ccc(NC(=O)[C@H](C)N4CCC(F)(F)[C@@H](c5ccc(=O)[nH]c5)C4)nc3)c(F)c2)cs1 [Example 99, (S)-2-((S)-4,4-difluoro-3-(6-oxo-1,6-dihydropyridin-3-yl)piperidin-1-yl)-N-(5-(2-fluoro-4-(2-methylthiazol-4-yl)phenoxy)pyridin-2-yl)propanamide] | 10 to 100 nM
2 | CC(C(=O)Nc1ccc(F)cn1)N1CCC(F)(F)C(c2c[nH]c(=O)c(CS(C)(=O)=O)c2)C1 (stereo not drawn) [Example 213, 2-(4,4-difluoro-3-(5-((methylsulfonyl)methyl)-6-oxo-1,6-dihydropyridin-3-yl)piperidin-1-yl)-N-(5-fluoropyridin-2-yl)propanamide] | 100 to 3160 nM
3 | C[C@@H](C(=O)Nc1ccc(Oc2ccncn2)cn1)N1CCC(F)(F)[C@@H](c2ccc(=O)[nH]c2)C1 [Example 74, (S)-2-((S)-4,4-difluoro-3-(6-oxo-1,6-dihydropyridin-3-yl)piperidin-1-yl)-N-(5-(pyrimidin-4-yloxy)pyridin-2-yl)propanamide] | 100 to 3160 nM
4 | C[C@@H](C(=O)Nc1ccc(F)cn1)[C@H]1CCC(F)(F)[C@@H](c2ccc(=O)[nH]c2)C1 [Example 277, (R)-2-((1S,3R)-4,4-difluoro-3-(6-oxo-1,6-dihydropyridin-3-yl)cyclohexyl)-N-(5-fluoropyridin-2-yl)propanamide] | 10 to 100 nM
5 | C[C@@H](C(=O)Nc1ccc(Oc2cccnc2)cn1)N1CCC(F)(F)[C@@H](c2ccc(=O)[nH]c2)C1 [Example 59, (S)-2-((S)-4,4-difluoro-3-(6-oxo-1,6-dihydropyridin-3-yl)piperidin-1-yl)-N-(5-(pyridin-3-yloxy)pyridin-2-yl)propanamide] | 100 to 3160 nM
6 | C[C@@H](C(=O)Nc1ccc(Oc2ccc(F)cc2)cn1)N1CCC(F)(F)[C@@H](c2c[nH]c(=O)c(C(N)=O)c2)C1 [Example 252, 5-((S)-4,4-difluoro-1-((S)-1-((5-(4-fluorophenoxy)pyridin-2-yl)amino)-1-oxopropan-2-yl)piperidin-3-yl)-2-oxo-1,2-dihydropyridine-3-carboxamide] | ≤ 10 nM
7 | CC(C(=O)Nc1ccc(OCC2CCCC2)cn1)N1CCC(F)(F)[C@@H](c2ccc(=O)[nH]c2)C1 (stereo partly drawn) [Example 47, N-(5-(cyclopentyl-methoxy)pyridin-2-yl)-2-((S)-4,4-difluoro-3-(6-oxo-1,6-dihydropyridin-3-yl)piperidin-1-yl)propanamide] | 100 to 3160 nM
8 | C[C@@H](C(=O)Nc1ccc(Oc2ccc(F)cc2F)cn1)N1CCC(F)(F)C(c2ccnc(CN3CC(F)(F)C3)c2)C1 (mixture of isomers) [Example 270, (2S)-2-(3-(2-((3,3-difluoroazetidin-1-yl)methyl)pyridin-4-yl)-4,4-difluoropiperidin-1-yl)-N-(5-(2,4-difluorophenoxy)pyridin-2-yl)propanamide] | 10 to 100 nM
9 | C[C@@H](C(=O)Nc1ccc(C(F)(F)c2ccc(F)cc2)cn1)N1CCC(F)(F)[C@@H](c2cc[n+]([O-])cc2)C1 [Example 127, 4-((S)-1-((S)-1-((5-(difluoro(4-fluorophenyl)methyl)pyridin-2-yl)amino)-1-oxopropan-2-yl)-4,4-difluoropiperidin-3-yl)pyridine 1-oxide] | 10 to 100 nM
10 | Cc1ccccc1Oc1ccc(NC(=O)[C@H](C)N2CCC(F)(F)[C@@H](c3ccc(=O)[nH]c3)C2)nn1 [Example 20] | 100 to 3160 nM
11 | C[C@@H](C(=O)Nc1cnc(Oc2ccc(F)cc2)cn1)N1CCC(F)(F)[C@@H](c2c[nH]c(=O)c(CS(C)(=O)=O)c2)C1 [Example 215, (S)-2-((S)-4,4-difluoro-3-(5-((methylsulfonyl)methyl)-6-oxo-1,6-dihydropyridin-3-yl)piperidin-1-yl)-N-(5-(4-fluorophenoxy)pyrazin-2-yl)propanamide] | 10 to 100 nM
12 | CC(C(=O)Nc1ccc(Oc2ccc(F)cc2)cn1)N1CCC(F)(F)C(c2c[nH]c(=O)c(CN(C)C)c2)C1 (stereo not drawn) [Example 230, 2-(3-(5-((dimethylamino)methyl)-6-oxo-1,6-dihydropyridin-3-yl)-4,4-difluoropiperidin-1-yl)-N-(5-(4-fluorophenoxy)pyridin-2-yl)propanamide] | 10 to 100 nM
13 | C[C@@H](C(=O)Nc1ccc(Oc2ccc(F)cn2)cn1)N1CCC(F)(F)[C@@H](c2c[nH]c(=O)c(CN)c2)C1 [Example 208, (S)-2-((S)-3-(5-(aminomethyl)-6-oxo-1,6-dihydropyridin-3-yl)-4,4-difluoropiperidin-1-yl)-N-(5-((5-fluoropyridin-2-yl)oxy)pyridin-2-yl)propanamide] | ≤ 10 nM
14 | C[C@@H](C(=O)Nc1ccc(Oc2ccc(F)cc2CO)cn1)N1CCC(F)(F)[C@@H](c2cc[n+]([O-])cc2)C1 [Example 273, 4-((S)-4,4-difluoro-1-((S)-1-((5-(4-fluoro-2-(hydroxymethyl)phenoxy)pyridin-2-yl)amino)-1-oxopropan-2-yl)piperidin-3-yl)pyridine 1-oxide] | 10 to 100 nM
15 | C[C@@H](C(=O)Nc1cnc(Oc2c(F)cccc2F)cn1)N1CCC(F)(F)[C@@H](c2cc[n+]([O-])cc2)C1 [Example 121, 4-((S)-1-((S)-1-((5-(2,6-difluorophenoxy)pyrazin-2-yl)amino)-1-oxopropan-2-yl)-4,4-difluoropiperidin-3-yl)pyridine 1-oxide] | ≤ 10 nM
16 | C[C@@H](C(=O)Nc1ccc(Oc2ccc(F)cn2)cn1)N1CCC(F)(F)[C@@H](c2cc[n+]([O-])cc2)C1 [Example 115] | 10 to 100 nM
17 | C[C@@H](C(=O)Nc1ccc(OCC2CC2)nn1)N1CCC(F)(F)[C@@H](c2c[nH]c(=O)c(CN)c2)C1 [Example 203, (S)-2-((S)-3-(5-(aminomethyl)-6-oxo-1,6-dihydropyridin-3-yl)-4,4-difluoropiperidin-1-yl)-N-(6-(cyclopropylmethoxy)pyridazin-3-yl)propanamide] | 10 to 100 nM
18 | CC(C(=O)Nc1ccc(CCC2CC2)cn1)N1CCC(F)(F)[C@@H](c2ccc(=O)[nH]c2)C1 (stereo partly drawn) [Example 21, N-(5-(2-cyclopropylethyl)pyridin-2-yl)-2-((S)-4,4-difluoro-3-(6-oxo-1,6-dihydropyridin-3-yl)piperidin-1-yl)propanamide] | 10 to 100 nM
19 | COc1cc(F)ccc1Oc1ccc(NC(=O)[C@H](C)N2CCC(F)(F)[C@@H](c3ccc(=O)[nH]c3)C2)nc1 [Example 269] | ≤ 10 nM
20 | C[C@@H](C(=O)Nc1ccc(OCC2CC2)cn1)N1CCC(F)(F)[C@@H](c2ccc(=O)n(CC(F)(F)F)c2)C1 (single isomer, unassigned) [Example 2] | ≤ 10 nM
21 | C[C@@H](C(=O)Nc1ccc(F)cn1)N1CCC(F)(F)[C@@H](c2ccc(=O)[nH]n2)C1 [Example 148, (S)-2-((R)-4,4-difluoro-3-(6-oxo-1,6-dihydropyridazin-3-yl)piperidin-1-yl)-N-(5-fluoropyridin-2-yl)propanamide] | 100 to 3160 nM
22 | CC(C(=O)Nc1ccc(Br)cn1)N1CCC(F)(F)[C@@H](c2ccc(=O)[nH]c2)C1 (stereo partly drawn) [Example 94, N-(5-bromopyridin-2-yl)-2-((S)-4,4-difluoro-3-(6-oxo-1,6-dihydropyridin-3-yl)piperidin-1-yl)propanamide] | 100 to 3160 nM
23 | C[C@@H](C(=O)Nc1ccc(Cl)cn1)N1CCC[C@@H](c2c[nH]c(=O)c(-c3ccccc3)c2)C1 (single isomer, unassigned) [Example 178] | 100 to 3160 nM
24 | C[C@@H](C(=O)Nc1ccc(Oc2ccc(F)cc2F)cn1)N1CCC(F)(F)[C@@H](c2cc[n+]([O-])c(C(N)=O)c2)C1 (single isomer, unassigned) [Example 258] | ≤ 10 nM
25 | C[C@@H](C(=O)Nc1ccc(Oc2ccc(F)cn2)cn1)[C@H]1CCC[C@@H](c2cc[n+]([O-])cc2)C1 [Example 287, 4-((1R,3S)-3-((R)-1-((5-((5-fluoropyridin-2-yl)oxy)pyridin-2-yl)amino)-1-oxopropan-2-yl)cyclohexyl)pyridine 1-oxide] | 10 to 100 nM
26 | CC(C(=O)Nc1ccc(Cc2ncco2)cn1)N1CCC(F)(F)[C@@H](c2ccc(=O)[nH]c2)C1 (stereo partly drawn) [Example 53, 2-((S)-4,4-difluoro-3-(6-oxo-1,6-dihydropyridin-3-yl)piperidin-1-yl)-N-(5-(oxazol-2-ylmethy)pyridin-2-yl)propanamide] | 3160 to 31600 nM
27 | C[C@@H](C(=O)Nc1ccc(OC2CCCC2)cn1)N1CCC(F)(F)[C@@H](c2ccc(=O)[nH]c2)C1 [Example 9, (S)-N-(5-(cyclopentyloxy)pyridin-2-yl)-2-((S)-4,4-difluoro-3-(6-oxo-1,6-dihydropyridin-3-yl)piperidin-1-yl)propanamide] | 10 to 100 nM
28 | C[C@@H](C(=O)Nc1ccc(OCC2CC2)nn1)N1CCC(F)(F)[C@@H](c2ccc(=O)[nH]c2)C1 [Example 8, N-(6-(cyclopropylmeth-oxy)pyridazin-3-yl)-2-((S)-4,4-difluoro-3-(6-oxo-1,6-dihydropyridin-3-yl)piperidin-1-yl)propanamide] | 10 to 100 nM
29 | C[C@@H](C(=O)Nc1ccc(OCC2CC2)nn1)N1CCC(F)(F)[C@@H](c2ccc(=O)[nH]n2)C1 [Example 146, (S)-N-(6-(cyclopropylmethoxy)pyridazin-3-yl)-2-((R)-4,4-difluoro-3-(6-oxo-1,6-dihydropyridazin-3-yl)piperidin-1-yl)propanamide] | 10 to 100 nM
30 | C[C@@H](C(=O)Nc1ccc(Oc2ccc(F)cc2F)cn1)[C@H]1CCC[C@@H](c2ccc(=O)[nH]c2)C1 [Example 282, (R)—N-(5-(2,4-difluorophenoxy)pyridin-2-yl)-2-((1S,3R)-3-(6-oxo-1,6-dihydropyridin-3-yl)cyclohexyl)propanamide] | ≤ 10 nM
